# Experimental data: patent US12594265B2, “Methods and compositions for inhibition of STAT3” (Ohio State Innovation Foundation, priority 2017, dated 2026)
# How the values were obtained:
# [1] = system: Teff cells from MS patients; assay: CFSE-based Treg-mediated suppression assay on Teff cells from MS patients; assay type: cell-based, human; conditions: 0.25 μM for 1-2 hrs; 3 treatment-naïve MS patients
# Procedure: FIGS. 15A-15C show representative data for LLL12b enhancement of Treg-mediated suppression on Teff cells obtained from MS patients. PBMCs were obtained from three treatment-naïve MS patients and were activated with αhCD3/CD28 plus rhTGFβ, rhIL-2 and RA for 3 days to generate Tregs. Meanwhile, PBMCs from the same three MS patients were labeled with CFSE and cultured with 0.25 μM of LLL12b or DMSO for 1-2 hours. The LLL12b or DMSO treated CFSE-CD4 T cells were then mixed with Tregs generated from the same patient at different ratios and activated with αhCD3 for 5 days. Proliferation of Teff cells was determined by flow cytometric analysis of CFSE on CD4 T cells. Cells were gated on CD4+ cells.
# LLL12b enhances Treg mediated suppression on Teff cells from MS patients. Since Teff cells from MS patients are resistant to Treg mediated suppression and IL-6/STAT3 signaling promotes the resistance of Teff in MS patient, we determined whether LLL12b may enhance the Treg-mediated suppression on Teff from MS patients using CFSE-based suppression assay. PBMCs from three treatment-naïve MS patients were labeled with CFSE and cultured with 0.25 μM of LLL12b or DMSO for 1-2 hrs. Then the CFSE-CD4 T cells were mixed with iTregs differentiated from the same patient at different ratio, and activated with αhCD3 for 5 days. […]
# [2] = system: CD25+FoxP3+ iTregs of CD4 T cells from MS patients; assay: iTreg development of CD4 T cells from MS patients (intracellular flow cytometry); assay type: cell-based, human
# Procedure: FIGS. 14A-14M show representative data for LLL12b suppression of human Th17 development and promotion of Treg development in CD4 T-cells from MS patients. FIGS. 14A, 14E, 14H, and 14K each shown representative data obtained in PBMCs from 22 treatment-naïve MS patients that were activated with αhCD3 plus rhIL-6 for 3 days, in the presence of 0.125 μM or 0.25 μM of LLL12b. DMSO was used as a vehicle control. IL-17 in supernatant was determined by ELISA. FIGS. 14B-14C, 14F, 14I, and 14L each shown representative data obtained in PBMCs from 22 treatment-naïve MS patients that were activated with αhCD3/CD28 plus rhTGFβ. rhIL-2 and RA for 3 days, in the presence of 0.125 μM of LLL12b. DMSO was used as vehicle control. CD25+FoxP3+CD4+ iTregs were determined by intracellular flow cytometry. Cells were gated CD45RA+CD4+ cells. […] IL-17 in each group was compared with one-way ANOVA. […] FIG. 14G the calculated IL-17/Treg ratio of each patient in LLL12b group and DMSO group and compared with Wilcoxon matched-pairs signed rank test. […] FIG. 14J the calculated percent decrease of IL-17/Treg ratio in LLL12b group compared to DMSO group. […] FIG. 14M patient numbers in different ranges of calculated percent decrease of IL-17/Treg.
# Meanwhile, we determined the extent to which LLL12b promotes the development of iTregs of CD4 T cells from MS patients (FIGS. 14B-14C, 14F, 14I, and 14L). PBMCs from 22 treatment-naïve MS patients were activated with αhCD3/CD28 for 3 days, in the presence of TGFβ, IL-2 and trans-retinoic acid (iTreg differentiating condition). After 72 h of culture under iTreg differentiating condition, the total number of CD25+FoxP3+ iTregs in the CD4+CD45RA+ population increased from 40% in control group to 59% in the group treated with LLL12b.
# [3] = of 22 treatment-naïve MS patients, compared to DMSO
smiles,measurement,setting,value
CN(C)C(=O)Oc1cccc2c1C(=O)c1cccc(S(N)(=O)=O)c1C2=O [LLL12b],Treg mediated suppression on Teff cells (% suppression),[1],significantly increased
same,iTreg development of CD4 T cells from MS patients,"[2]; 0.125 μM, 22 treatment-naïve MS patients",significantly promotes iTreg development
same,patient numbers with % Increase of iTregs 5-20%,[2]; [3],13
same,patient numbers with % Increase of iTregs 20-40%,[2]; [3],3
same,patient numbers with % Increase of iTregs <5%,[2]; [3],5
same,patient numbers with % Increase of iTregs >40%,[2]; [3],1
same,CD25+FoxP3+ iTregs in the CD4+CD45RA+ population,"[2]; one MS patient, 72 h, iTreg differentiating condition, control group 40%",59%
